Results published in patent US11799117B2, “Flow batteries incorporating a nitroxide compound within an aqueous electrolyte solution” (LOCKHEED MARTIN ENERGY, LLC, priority 2016, dated 2023).

Tests used:
Assay type in all cases: physicochemical
Aqueous solubility = experiment: Aqueous solubility
From the text: (§1) First, it has a reduction potential of approximately 0.6 V versus a saturated calomel electrode, which is desirably higher than that of iron hexacyanide coordination compounds (increase of 0.25 V).

[1] = Reduction potential versus a saturated calomel electrode
From the text: as §1

[2] = Conductivity of aqueous solution; settings: 1 M aqueous solution, pH 11, absence of other electrolytes
From the text: as §1

[3] = Electrochemical kinetics by cyclic voltammetry; settings: also in alkaline aqueous electrolyte solutions; substantially reversible = anodic/cathodic peak difference less than about 0.3 V
From the text: The high positive half-cell reduction potentials can provide significant advantages when incorporated in flow batteries, particularly in comparison to the commonly used iron hexacyanide coordination compounds. The high positive reduction potential can allow improved open circuit potential, voltage efficiency and current efficiency values to be realized. In addition, the improved solubility of many nitroxide compounds compared to iron hexacyanide coordination compounds allows improved energy density values to be realized.
The nitroxide compound defined by Structure 12 has the chemical name [2,2,6,6-tetramethyl-4-(sulfooxy)piperidin-1-yl]oxidanyl (also referred to herein as TEMPOSO). Without being bound by any theory or mechanism, it is believed that the sulfate (sulfooxy) group can stabilize the nitroxide group when the six-membered ring is in its “boat”, configuration. […] Under alkaline aqueous solutions, the deprotonated anionic form of Structure 12 can be stabilized after oxidation of the radical through lone pair donation from the sulfooxy group to the resulting nitrogen-centered cation.
as §1

For “[2,2,6,6-tetramethyl-4-(sulfooxy)piperidin-1-yl]oxidanyl [TEMPOSO]”, the aqueous solubility (Aqueous solubility) was ≥ 1.8 M, the “increase of reduction potential over iron hexacyanide coordination compounds” value [1] was 0.25 V and the reduction potential [1] was “approximately 0.6 V”. The conductivity [2] was “about 50 mS/cm” and the electrochemical kinetics [3] was “substantially reversible”.
